We go through one compound from PMC8305236, “New Broth Macrodilution Volatilization Method for Antibacterial Susceptibility Testing of Volatile Agents and Evaluation of Their Toxicity Using Modified MTT Assay In Vitro” (Molecules, 2021).

Each structure is given as a SMILES string. ≈ marks a conversion by molar mass, not a printed value. Like-named read-outs stand apart in the source and are kept apart here.

One data set relates to oral microorganisms. More on the design: method as in PMID 27681039. The conditions noted are these: disc volatilization method; cited from earlier work.
For the next data set, the system named is S. pyogenes. Also noted: method as in PMID 31106894. The conditions noted are these: cited from earlier work.
Another data set relates to respiratory pathogens. Description: broth macrodilution volatilization method, all four bacteria together. Format: cell-based. The conditions noted are these: mean value of minimal inhibitory concentrations in broth medium. The source says:
(§1) The following four bacterial standard strains from the American Type Culture Collection (ATCC, Manassas, VA, USA) were used: Haemophilus influenzae ATCC 49247, Staphylococcus aureus ATCC 29213, Streptococcus pneumoniae ATCC 49619, and Streptococcus pyogenes ATCC 19615. Cultivation and assay media (broth/agar) were Mueller–Hinton (MH) complemented by Haemophilus Tested Medium (H. influenzae), MH (S. aureus), and Brain Heart Infusion (S. pneumoniae and S. pyogenes). The pH of the broths was equilibrated to a final value of 7.6 using Trizma base (Sigma-Aldrich, Praha, Czech Republic). […] cultivation media were purchased from Oxoid (Basingstoke, UK).
(§2) Stock cultures of bacterial strains were cultivated in broth medium at 37 °C for 24 h prior to testing. For the preparation of inoculum, the turbidity of the bacterial suspension was adjusted to 0.5 McFarland standard using a Densi-La-Meter II (Lachema, Brno, Czech Republic) to obtain a final concentration of 10^8 CFU/mL.
The antibacterial potential of volatile plant-derived compounds in the liquid and vapor phases was determined using a newly developed broth macrodilution volatilization method performed in standard 2 mL microtubes with snap caps (Eppendorf, Hamburg, Germany). Initially, each sample of compound was dissolved in DMSO at maximum concentration of 1% and diluted in the appropriate broth medium. […] After incubation at 37 °C for 24 h, the MICs were evaluated by the visual assessment of bacterial growth after coloring metabolically active bacterial colonies with MTT dye. The respective volumes of 30 and 375 µL of MTT at a concentration of 600 µg/mL were pipetted into the caps and in the microtubes when the interface of color change from yellow to purple (relative to that of colors in control wells) was recorded in broth and agar (Figure 3c). […] The MIC values were determined as the lowest concentrations that inhibited bacterial growth compared with the compound-free control and are expressed in µg/mL. […]

Data set [1] has as its system human lung cancer tissues. More on the design: method as in PMID 25105411, doi:10.1177/1934578X1801301223, doi:10.15324/kjcls.2019.51.2.221. The conditions noted are these: various types of human lung cancer tissues; cited from earlier work.
A further data set relates to S. pneumoniae. More on the design: method as in PMID 31106894. The following applies: cited from earlier work.
Data set [2] deals with Streptococcus pneumoniae ATCC 49619. Description: broth macrodilution volatilization method (liquid and vapor phase MIC). The following applies: for MIC: Streptococcus pneumoniae, ATCC49619. The format is cell-based.
Text: as §1, §2
(§3) The antibacterial potential of volatile plant-derived compounds in the liquid and vapor phases was determined using a newly developed broth macrodilution volatilization method performed in standard 2 mL microtubes with snap caps (Eppendorf, Hamburg, Germany). Initially, each sample of compound was dissolved in DMSO at maximum concentration of 1% and diluted in the appropriate broth medium. […] The concentration of β-thujaplicin started from 1024 µg/mL and from 128 µg/mL for thymohydroquinone and thymoquninone. In the second step, 90 µL of melted agar was pipetted into rims on the caps (Figure 3a) and inoculated with 5 µL of bacterial suspension after agar solidification. Subsequently, the appropriate concentrations of each sample previously prepared in test tubes were pipetted into microtubes in a final volume of 1500 µL. Then, the microtubes were inoculated with 10 µL of bacterial suspension and closed properly (Figure 3b). Microtubes containing inoculated and non-inoculated media were prepared as growth and purity controls simultaneously. After incubation at 37 °C for 24 h, the MICs were evaluated by the visual assessment of bacterial growth after coloring metabolically active bacterial colonies with MTT dye. The respective volumes of 30 and 375 µL of MTT at a concentration of 600 µg/mL were pipetted into the caps and in the microtubes when the interface of color change from yellow to purple (relative to that of colors in control wells) was recorded in broth and agar (Figure 3c). […] The MIC values were determined as the lowest concentrations that inhibited bacterial growth compared with the compound-free control and are expressed in µg/mL. In the case of the vapor phase, the concentration was also expressed in µg/cm^3 as the weight of the volatile agent per volume unit of a microtube. […] The respective susceptibilities of H. influenzae, S. aureus, S. pneumoniae, and S. pyogenes to ampicillin, oxacillin, amoxicillin, and tetracycline were checked as positive antibiotic controls. All tests were performed as three independent experiments, each carried out in triplicate, and the results were presented as median/modal values. According to the widely accepted norm in MIC testing, the mode and median were used for the final value calculation when triplicate endpoints were within the two- and three-dilution ranges, respectively.

Data set [3] deals with Streptococcus pyogenes ATCC 19615. The description is as above. Format: cell-based. The conditions noted are these: for MIC: Streptococcus pyogenes, ATCC19615.
Text: as §1, §2, §3

Data set [4] deals with Staphylococcus aureus ATCC 29213. Described as above. The format is cell-based.
Text: as §1, §2, §3

The subject of data set [5] is Haemophilus influenzae ATCC 49247. The description is as above. The format is cell-based.
Text: as §1, §2, §3

The test system of a further data set is S. aureus. The conditions noted are these: various strains of S. aureus; cited from earlier work.
Data set [6] in a line: modified MTT cytotoxicity assay. The following applies: human. The protocol:
(§4) Lung fibroblast cell line MRC-5, obtained from ATCC, was propagated in Eagle’s Minimum Essential Medium (EMEM) supplemented with 10% fetal bovine serum (FBS), 2 mM glutamine, 10 µL/mL non-essential amino acids, and 1% penicillin–streptomycin solution (10,000 units/mL of penicillin and 10 mg/mL of streptomycin); all these components were purchased from Sigma-Aldrich. The cells were pre-incubated in 96-well microtiter plates at a density of 2.5 × 10^3 cells per well for 24 h at 37 °C in a humidified incubator in an atmosphere of 5% CO2 in air.
(§5) A modified method based on the metabolization of MTT to blue formazan by mitochondrial dehydrogenases in living lung cells previously described by Mosmann was used. The lung fibroblast cells were treated for 72 h with the tested compounds dissolved in DMSO at a maximum concentration of 1% and diluted in the EMEM medium supplemented with 10% FBS. Twelve two-fold serially diluted concentrations of these agents ranging from 512 to 0.25 µg/mL were prepared. The microtiter plates were covered with EVA capmats^TM at 37 °C in a humidified atmosphere of 5% CO2 in air and cultivated for 72 h. Thereafter, MTT reagent (1 mg/mL) in EMEM solution was added to each well and the plates were incubated for an additional 2 h at 37 °C in a humidified atmosphere of 5% CO2 in air. The media were removed, and the intracellular formazan product was dissolved in 100 µL of DMSO. […] The absorbance was measured at 555 nm using a Tecan Infinite M200 spectrometer (Tecan Group, Mannedorf, Switzerland), and the viability was calculated in comparison to that of the untreated control. Three independent experiments (two replicates each) were performed for each test. […] Furthermore, IC80 was calculated as equivalent to the MIC endpoint for comparison of microbiological and toxicological data. Therapeutic indices (TIs) were defined as the ratio of x¯ -IC80 and x¯ -MIC values with the aim of determining the amount of effective antibacterial agents with the quantity causing toxicity.
In general terms: Tetrazolium assays rely on reduction of a dye to a coloured formazan, in cell work by metabolically active cells.

Data set [7] relates to normal lung fibroblast cells MRC-5. Description: modified MTT cytotoxicity assay. The protocol: as §4, §5
Where [8] appears, read: liquid phase, 37 °C, 24 h, read-out: Minimal Inhibitory Concentration, Broth.
[9] abbreviates: vapor phase, 37 °C, 24 h, read-out: Minimal Inhibitory Concentration, Agar.
The mark [10] stands for this setting: vapor phase, weight of volatile agent per volume unit of microtube, read-out: Minimal Inhibitory Concentration, Agar.

A word on the IC50: it is the point on the concentration scale where inhibition reaches its midpoint. For orientation: IC80 means the concentration at which the effect reaches the 80% level. Low values mean an effect from little substance, high ones a need for much substance. Regarding `CC(C)c1cccc(=O)c(O)c1` [β-thujaplicin], the “growth-inhibitory effect in the gaseous phase” value with oral microorganisms is listed as “certain level of growth-inhibitory effect”. The MIC in the data set with S. pyogenes was 0.3 to 1 µg/mL; in the data set with S. pneumoniae, 0.3 to 1 µg/mL; in data set [2] (setting [8]) it was 64 µg/mL (≈ 390 µM); in data set [2] (setting [9]), 1020 µg/mL (≈ 6240 µM); in data set [2] (setting [10]), 640 µg/mL (≈ 3900 µM); in data set [3] (setting [8]) it was 64 µg/mL (≈ 390 µM). Further, the MIC came to 1020 µg/mL (≈ 6240 µM) in data set [3] (setting [9]); 640 µg/mL (≈ 3900 µM) in data set [3] (setting [10]); 64 µg/mL (≈ 390 µM) in data set [4] (ATCC29213, liquid phase, 37 °C, 24 h, read-out: Minimal Inhibitory Concentration, Broth); 512 µg/mL (≈ 3120 µM) in data set [4] (ATCC29213, vapor phase, 37 °C, 24 h, read-out: Minimal Inhibitory Concentration, Agar); 320 µg/mL (≈ 1950 µM) in data set [4] (ATCC29213, vapor phase, weight of volatile agent per volume unit of microtube, read-out: Minimal Inhibitory Concentration, Agar); 64 µg/mL (≈ 390 µM) in [5] (ATCC49247, liquid phase, 37 °C, 24 h, read-out: Minimal Inhibitory Concentration, Broth). In addition, the MIC in data set [5] (ATCC49247, vapor phase, 37 °C, 24 h, read-out: Minimal Inhibitory Concentration, Agar) was 512 µg/mL (≈ 3120 µM); in data set [5] (ATCC49247, vapor phase, weight of volatile agent per volume unit of microtube, read-out: Minimal Inhibitory Concentration, Agar), 320 µg/mL (≈ 1950 µM); in the data set on S. aureus, 12.5 to 160 µg/mL. Moreover, in the data set on respiratory pathogens, the x¯ -MIC is 64 µg/mL. The IC50 in [1] is 0.26 to 12.32 µg/mL; in [7] (Homo sapiens, MRC5, 72 h, read-out: IC50 ± SD), 4.15 ± 0.45 µg/mL (≈ 25.3 µM). Also, the “Minimal Inhibitory Concentration, Agar” value was “low antibacterial efficacy” in data set [2] (vapor phase, 37 °C, 24 h) and “low antibacterial efficacy” in data set [3] (vapor phase, 37 °C, 24 h). The 80% effect level in data set [6] (IC80 at 72 h) was put at 215 ± 9.71 µg/mL (≈ 1310 µM). In addition, the “level of cytotoxic effect (WHO classification)” value in data set [7] (classified by IC50 in lung fibroblast cells) is reported as “moderate toxicity”. The compound further registered a TI in data set [7] (therapeutic index, TI = IC80/x¯ -MIC) of 3.36.
